This is an account of results in patent US20160106102A1, “KNOWN AND NEW HETEROCYCLIC COMPOUNDS AS PEST CONTROL AGENTS” (BAYER CROPSCIENCE AKTIENGESELLSCHAFT, priority 2013, published 2016).

The test system of one series is Myzus persicae. Kind of series: Myzus persicae - sachet test. It is filed as in vivo. The settings on record: 100% = all animals killed. Here is the method: Myzus persicae—Sachet Test Solvent: 2% by vol. of N-methylpyrrolidone • 2% by vol. of diacetone alcohol To produce an appropriate active ingredient formulation, the active ingredient is mixed with the specified amounts of solvent and the concentrate is diluted to the desired concentration with water. The active ingredient formulation is added to a specific nutrient medium in the desired concentration by pipetting. This plate is sealed and combined with a further plate populated with the green peach aphid (Myzus persicae). After the desired time, the kill in % is determined. 100% means that all the animals have been killed; 0% means that no animals have been killed.

Series [1] can be described thus: log P determination by LC-MS in the acidic range. It is filed as physicochemical. From the text:
The LC-MS determination in the acidic range is effected at pH 2.7 using 0.1% aqueous formic acid and acetonitrile (contains 0.1% formic acid) as eluents, linear gradient from 10% acetonitrile to 95% acetonitrile. Alternatively, the determination is effected in the acidic range at pH 2.3 using 0.1% aqueous phosphoric acid and acetonitrile as eluents; linear gradient from 10% acetonitrile to 95% acetonitrile.

[2] abbreviates: application rate of 6 ppm in nutrient medium.
[3] abbreviates: application rate of 30 ppm in nutrient medium.
[4] abbreviates: pH 2.7, values given in the synthesis examples and NMR lists, read-out: HPLC-MS: log P.
Setting [5] is: amines of the formula (II-1), acidic range pH 2.7 (0.1% formic acid/acetonitrile) or pH 2.3 (0.1% phosphoric acid/acetonitrile).
Setting [6] is: pH 2.7, amines of the formula (II-1), acidic range pH 2.7 (0.1% formic acid/acetonitrile) or pH 2.3 (0.1% phosphoric acid/acetonitrile), read-out: log P (acid).

Like-named read-outs stand apart in the source and are kept apart here.

Turning to `Cc1cc(NC(=O)c2cccnc2)nn1Cc1ccc(Cl)nc1` [Compound I-1-21], the “efficacy (kill in %)” value with Myzus persicae (setting [2]) and in the series on Myzus persicae (setting [3]) was 100% in each case. In addition, the “log P (acid)” value in series [1] (LC-MS in the acidic range) stood at 1.42.
Take `CCOC(=O)Cn1nc(NC(=O)c2cccnc2)cc1C` [Compound I-1-24]: the “efficacy (kill in %)” value with Myzus persicae (setting [2]) and in the series on Myzus persicae (setting [3]) was 100% each time. Further, the “log P (acid)” value in series [1] (LC-MS in the acidic range) came to 0.89.
Regarding `O=C(Nc1cc(C2CC2)n(Cc2ccc(Cl)nc2)n1)c1cccnc1` [Compound I-1-29], the “efficacy (kill in %)” value with Myzus persicae (setting [2]) and with Myzus persicae (setting [3]) was 100% in each case. Further, the “log P (acid)” value in series [1] (LC-MS in the acidic range) turned out to be 1.77.
Consider `CCc1cc(NC(=O)c2cccnc2)nn1Cc1ccccc1` [Compound I-1-35, N-(1-Benzyl-5-ethyl-1H-pyrazol-3-yl)nicotinamide], for which, in the series with Myzus persicae (Myzus persicae, application rate of 30 ppm in nutrient medium, read-out: efficacy (kill in %)), the pest or weed control at 30 ppm was 100%. Further, the chromatographic logP worked out at 2.03 in series [1] (pH 2.7, LC-MS in the acidic range, read-out: log P (acid)) and 2.03 in series [1] (setting [4]).
Consider `Cc1cc(NC(=O)c2cccnc2)nn1Cc1ncccc1Cl` [Compound I-1-37], for which the “efficacy (kill in %)” value in the series on Myzus persicae (setting [2]) and with Myzus persicae (setting [3]) was 100% each time. Also, the “log P (acid)” value in series [1] (LC-MS in the acidic range) is on record as 1.42.
Consider `Cc1cc(NC(=O)c2cccnc2)nn1-c1ccc(C(F)(F)F)cn1` [Compound I-1-45], for which the “efficacy (kill in %)” value with Myzus persicae (setting [2]) and with Myzus persicae (setting [3]) was 100% in each case. The “log P (acid)” value in series [1] (LC-MS in the acidic range) is on record as 2.64.
`COc1cc(OC)nc(Cn2nc(NC(=O)c3cccnc3)cc2C)n1` [Compound I-1-53]: the “efficacy (kill in %)” value with Myzus persicae (setting [2]) and in the series with Myzus persicae (setting [3]) was 100% throughout. Further, in series [1] (LC-MS in the acidic range), the “log P (acid)” value is on record as 1.59.
Consider `O=C(Nc1cc(C2CC2)n(Cc2ccccc2)n1)c1cccnc1` [Compound I-1-56], for which the “efficacy (kill in %)” value in the series on Myzus persicae (setting [3]) is listed as 100%. The “log P (acid)” value in series [1] (LC-MS in the acidic range) was determined as 2.1.
Take `Cc1nc2c(c(NC(=O)c3cncc(F)c3)nn2C)c(C)c1C` [Compound I-1-57]: the “efficacy (kill in %)” value with Myzus persicae (setting [2]) and in the series on Myzus persicae (setting [3]) was 100% throughout. Besides, the “log P (acid)” value in series [1] (LC-MS in the acidic range) is 1.6.
`CCc1cc(NC(=O)c2cccnc2)nn1Cc1ccc(Cl)nc1` [Compound I-1-58]: the “efficacy (kill in %)” value with Myzus persicae (setting [2]) is recorded as 80%; in the series on Myzus persicae (setting [3]), 100%. Also, the “log P (acid)” value in series [1] (LC-MS in the acidic range) was 1.67.
For `Cc1cc(NC(=O)c2cccnc2)nn1Cc1ccc(F)cc1` [Compound I-1-62], in that order: 100%, 100% and 1.88.
`Cc1cc(NC(=O)c2cncnc2)nn1Cc1ccccc1` [Compound I-1-66]: in the series on Myzus persicae (setting [3]), the “efficacy (kill in %)” value is reported as 100%. In addition, in series [1] (LC-MS in the acidic range), the “log P (acid)” value is recorded as 1.76.
Turning to `Nc1cc(C2CC2)n(Cc2ccc(Cl)nc2)n1` [II-1-1], in series [1] (setting [5]), the “log P (acid)” value was 1.21.
On the same count and under the same terms, the result for `Nc1cc(C2CC2)n(Cc2ccccc2)n1` [II-1-2] reads 1.36; that for `Nc1ccn(Cc2ccc(Cl)nc2)n1` [II-1-3], 0.56.
`C#CCn1nc(N)cc1C1CC1` [II-1-4]: the “log P (acid)” value in series [1] (setting [5]) was found to be 0.63.
The same measure, in the same setting: the result for `Cc1cc(N)nn1Cc1ccc(Cl)nc1` [II-1-5] reads 0.77; that for `Cc1cc(N)nn1-c1cnccn1` [II-1-6], 0.8; that for `Nc1ccn(C(CF)CF)n1` [II-1-7], −0.09.
As for `Nc1ccn(Cc2ncc(C(F)(F)F)cc2Cl)n1` [II-1-8, 1-{[3-Chloro-5-(trifluoromethyl)pyridin-2-yl]methyl}-1H-pyrazole-3-amine], the chromatographic logP in series [1] (setting [6]) and in series [1] (setting [4]) was 1.36 in each case.
Consider `Cc1cc(C)nc(Cn2nc(N)cc2C)n1` [II-1-9], for which the “log P (acid)” value in series [1] (setting [5]) is on record as 0.42.
On the same count and under the same terms, the value for `Cc1cc(N)nn1Cc1nccs1` [II-1-10] was 0.19.
Same read-out and setting: the value for `Cc1cc(N)nn1Cc1cccc(OC(F)(F)F)c1` [II-1-11] was 1.39; that for `COc1cc(OC)nc(Cn2nc(N)cc2C)n1` [II-1-12] was 0.81.
The same measure, in the same setting: the result for `Cc1cc(N)nn1CCCl` [II-1-13] reads 0.13.
With `Cc1ccnc(Cn2nc(N)cc2C)n1` [II-1-16], in series [1] (setting [5]), the “log P (acid)” value was determined as 0.02.
Consider `C#CCn1nc(N)cc1CC` [II-1-17], for which the “log P (acid)” value in series [1] (setting [5]) worked out at 0.46.
Still for that read-out and setting: the result for `Cc1cc(N)nn1Cc1ccncc1` [II-1-18] reads 0.45; that for `CCc1cc(N)nn1Cc1ccc(Cl)nc1` [II-1-19], 1.11; that for `C#CCn1nc(N)cc1C` [II-1-20], −0.15.
As for `Cc1cc(N)nn1Cc1ncccn1` [II-1-23, 5-Methyl-1-(pyrimidin-2-ylmethyl)-1H-pyrazole-3-amine], the chromatographic logP in series [1] (setting [6]) and in series [1] (setting [4]) was less than -0.23 in each case.
As for `Cc1cc(N)nn1Cc1ncccc1Cl` [II-1-24], the “log P (acid)” value in series [1] (setting [5]) turned out to be 0.6.
Same read-out and setting: the result for `Cc1cc(N)nn1Cc1ncccc1C#N` [II-1-25] reads 0.21; that for `Cc1cc(N)nn1C(F)F` [II-1-27], 0.47.
On the same count and under the same terms, the result for `Cc1cc(N)nn1Cc1cccnc1` [II-1-28] reads less than −0.23.
With `Nc1cc(Br)n(Cc2ncccn2)n1` [II-1-30, 5-Bromo-1-(pyrimidin-2-ylmethyl)-1H-pyrazole-3-amine], the chromatographic logP in series [1] (setting [6]) and in series [1] (setting [4]) was 0.56 throughout.
Consider `Cc1cc(N)nn1-c1ncccc1Cl` [II-1-31], for which the “log P (acid)” value in series [1] (setting [5]) was 0.79.
`CCOCn1nc(N)cc1C` [II-1-33]: in series [1] (setting [5]), the “log P (acid)” value worked out at 0.15.
The same measure, in the same setting: the value for `Cc1c(Br)c(N)nn1Cc1ncccn1` [II-1-34] was 0.92; that for `Nc1cc(C(F)(F)F)n(Cc2ncccn2)n1` [II-1-35] was 1.06; that for `Nc1cc(Cl)n(Cc2ncccn2)n1` [II-1-36] was 0.49.
In the case of `Cc1cc(N)nn1C(C)(C)C#N` [II-1-37], the “log P (acid)” value in series [1] (setting [5]) amounted to 0.64.
Still for that read-out and setting: the value for `Cc1ccn(Cn2nc(N)cc2C)n1` [II-1-38] was 0.55; that for `Cc1ccnn1Cn1nc(N)cc1C` [II-1-39] was 0.52; that for `Cn1nc(N)cc1C(F)F` [II-1-40] was 0.22.
The same measure, in the same setting: the value for `Cc1cc(N)nn1Cn1nccc1C(F)(F)F` [II-1-41] was 1.26; that for `Cc1cc(N)nn1Cn1ccc(C(F)(F)F)n1` [II-1-42] was 1.51.
Still for that read-out and setting: the result for `Cc1cc(N)nn1Cn1cncn1` [II-1-43] reads −0.23; that for `Cc1cc(N)nn1CN1CCS/C1=N/C#N` [II-1-44], 0.44; that for `Cc1cc(N)nn1Cn1ccnn1` [II-1-45], less than −0.23.
For the compound `Cc1cc(N)nn1Cn1nc(C)n(C)c1=O` [II-1-46], in series [1] (setting [5]), the “log P (acid)” value was less than −0.23.
Still for that read-out and setting: the value for `COc1nn(Cn2nc(N)cc2C)c(=O)n1C1CC1` [II-1-47] was 0.72; that for `Cc1cc(N)nn1Cn1c(=O)n(C)c(=O)n1C` [II-1-48] was 0.03; that for `Cc1cc(N)nn1Cn1nc(C)n(C2CC2)c1=O` [II-1-49] was 0.43.
Turning to `Cc1cc(N)nn1Cn1nc(C2CC2)n(C2CC2)c1=O` [II-1-50], in series [1] (setting [5]), the “log P (acid)” value is 0.98.
Same read-out and setting: the value for `Cc1cc(N)nn1CSc1ncccn1` [II-1-51] was 0.49; that for `CC(C)=NOCn1nc(N)cc1C` [II-1-52] was 0.57; that for `Cc1cc(N)nn1CC1CC1(Cl)Cl` (stereo not shown) [II-1-53] was 1.12.
Still for that read-out and setting: the result for `Cc1cc(N)nn1Cn1c(C)nn(C)c1=O` [II-1-54] reads less than −0.23; that for `Cc1cc(N)nn1CC=C(Cl)Cl` [II-1-56], 1.13; that for `Cc1cc(N)nn1CN1CCCNC1=O` [II-1-57], less than −0.23.
Regarding `Cc1cc(N)nn1CC(=O)Cc1ccccc1Cl` [II-1-58], the “log P (acid)” value in series [1] (setting [5]) is 1.39.
Turning to `CC(C)=CCn1nc(N)cc1C` [II-1-59], in series [1] (setting [5]), the “log P (acid)” value came to 0.73.
On the same count and under the same terms, the value for `CSCn1nc(N)cc1C` [II-1-60] was 0.14.
With `CCSCn1nc(N)cc1C` [II-1-61, 1-[(Ethylsulphanyl)methyl]-5-methyl-1H-pyrazole-3-amine], the chromatographic logP in series [1] (setting [6]) and in series [1] (setting [4]) was 0.63 throughout.
For `N#Cc1cc(N)nn1Cc1ncccn1` [II-1-62], in series [1] (setting [5]), the “log P (acid)” value was found to be 0.20.
Still for that read-out and setting: the result for `Cc1cc(N)nn1Cc1ncnn1C` [II-1-63] reads less than −0.23; that for `Cc1cc(N)nn1C(C)C#N` (stereo not shown) [II-1-64], 0.02.
Turning to `COC(=O)c1cc(C)n(Cc2ncccn2)n1` [Methyl 5-methyl-1-(pyrimidin-2-ylmethyl)-1H-pyrazole-3-carboxylate], the chromatographic logP in series [1] (setting [4]) was determined as 0.98.
Regarding `Cc1cc(N)nn1C(=O)OC(C)(C)C` [tert-Butyl 3-amino-5-methyl-1H-pyrazole-1-carboxylate], the chromatographic logP in series [1] (setting [4]) was 1.23.
Same read-out and setting: the value for `Cc1cc(NC(=O)OC(C)(C)C)nn1Cc1ncccn1` [tert-Butyl[5-methyl-1-(pyrimidin-2-ylmethyl)-1H-pyrazol-3-yl]carbamate] was 1.75.
